Experimental data reported in ChEMBL document CHEMBL1149482, “Syntheses of triazole-modified zanamivir analogues via click chemistry and anti-AIV activities” (Bioorg Med Chem Lett, 2006).
pEC50: −log10 of the molar value. The source made the active and inactive calls. No cut-off for these calls is given here.

Assays:
MDCK [1] = assay: Antiviral activity against avian influenza virus H5N1 measured as protective rate against MDCK cells at 50 uM by neutral red uptake assay; format: functional
MDCK [2] = assay: Antiviral activity against avian influenza virus H5N1 in MDCK cells measured as reduction in infected cells relative to control; format: functional, cell-based; details: Canis lupus familiaris

Compound	Activity (MDCK [1])	pEC50 (MDCK [2])
CC(=O)N[C@H]1[C@H]([C@H](O)[C@H](O)CO)OC(C(=O)O)=C[C@@H]1n1cc(-c2ccc(-c3ccccc3)cc2)nn1	19.1%	
CC(=O)N[C@H]1[C@H]([C@H](O)[C@H](O)CO)OC(C(=O)O)=C[C@@H]1n1cc(CCCO)nn1	6.3%	
CCCc1ccc(-c2cn([C@H]3C=C(C(=O)O)O[C@@H]([C@H](O)[C@H](O)CO)[C@@H]3NC(C)=O)nn2)cc1	22.1%	
CCc1ccc(-c2cn([C@H]3C=C(C(=O)O)O[C@@H]([C@H](O)[C@H](O)CO)[C@@H]3NC(C)=O)nn2)cc1	34.4%	
CC(=O)N[C@H]1[C@H]([C@H](O)[C@H](O)CO)OC(C(=O)O)=C[C@@H]1n1cc(CCO)nn1	14.5%	
CC(=O)N[C@H]1[C@H]([C@H](O)[C@H](O)CO)OC(C(=O)O)=C[C@@H]1n1cc(C2CC2)nn1	8.9%	
CCC(O)c1cn([C@H]2C=C(C(=O)OCCC(C)C)O[C@@H]([C@H](O)[C@H](O)CO)[C@@H]2NC(C)=O)nn1 (some centres undefined)	8.9%	
CC(=O)N[C@H]1[C@H]([C@H](O)[C@H](O)CO)OC(C(=O)O)=C[C@@H]1n1cc(CN)nn1	inactive	
CC(=O)N[C@H]1[C@H]([C@H](O)[C@H](O)CO)OC(C(=O)O)=C[C@@H]1n1cc(-c2ccccc2)nn1	18.7%	
CCCOc1ccc(-c2cn([C@H]3C=C(C(=O)O)O[C@@H]([C@H](O)[C@H](O)CO)[C@@H]3NC(C)=O)nn2)cc1	40.2%	
CC(=O)N[C@H]1[C@H]([C@H](O)[C@H](O)CO)OC(C(=O)O)=C[C@@H]1n1cc(COc2ccccc2)nn1	34.8%	
CC(=O)N[C@H]1[C@H]([C@H](O)[C@H](O)CO)OC(C(=O)O)=C[C@@H]1n1cc(-c2ccc(F)cc2)nn1	inactive	
CCC(O)c1cn([C@H]2C=C(C(=O)O)O[C@@H]([C@H](O)[C@H](O)CO)[C@@H]2NC(C)=O)nn1 (some centres undefined)	>61.4%	5.19
COC(=O)C1=C[C@H](n2cc(C(=O)OC)nn2)[C@@H](NC(C)=O)[C@H]([C@H](O)[C@H](O)CO)O1	9.9%	
CC(=O)N[C@H]1[C@H]([C@H](O)[C@H](O)CO)OC(C(=O)O)=C[C@@H]1NC(=N)N [ZANAMIVIR]	86.1%	5.55
CC(=O)N[C@H]1[C@H]([C@H](O)[C@H](O)CO)OC(C(=O)O)=C[C@@H]1n1cc(-c2ccccn2)nn1	inactive	
CC(=O)N[C@H]1[C@H]([C@H](O)[C@H](O)CO)OC(C(=O)O)=C[C@@H]1n1cc(CN2CCOCC2)nn1	17.3%	
